According to US9586994B2, “CD44V6-derived peptides for treating breast cancer” (KARLSRUHER INSTITUT FÜR TECHNOLOGIE, priority 2012, dated 2017):

What was measured:
[1] = target: T1, CD44v6 (Homo sapiens, UniProt P16070); test: Peptide blocking of EGF/TGFα-induced Erk phosphorylation in MCF7 cells (Western blot); assay type: cell-based; settings: peptide 100 ng/ml
T1 construct: endogenous in cells; host or cells: MCF7; MCF10A
Experimental: 3×10^5 were seeded per well of a 6-well plate and serum-starved for 24 hours. Afterwards the medium inside of each well was reduced to 1 ml and the respective peptide (v6 (both peptides of SEQ ID No.: 2 and 6 were tested), or ctrl peptide) was added at a concentration of 100 ng/ml. The cells then were incubated together with the peptide at 37° C. for 5 mins. Ligand concentration for all peptide blocking experiments was 20 ng/ml.
To assay protein expression via Western blot cells were washed 1× with PBS and afterwards lysed in 2×Laemmli sample buffer (160 mM Tris-HCl pH 6.8, 4% SDS, 16% glycerol, 0.1M DTT, 0.01% bromphenol blue). The sample was sheared through a 26 gauge needle. In succession the lysates were boiled for 5 mins at 99° C. in order to denature the proteins in the sample and then spun down at 10 000 rmp for 1 min Eventually the samples were loaded onto an SDS-PAGE gel.
To test whether CD44v6 acts as a co-receptor in MCF7 or MCF10A cells, a peptide blocking experiment using peptides of SEQ ID NO: 6 was conducted. The cells were serum-starved for 24 h and then pre-incubated with a v6 peptide or an unspecific control peptide. Then, the cells were induced with EGF or HGF as a control. As a read-out for ErbB-activation, the phosphorylation of the Erk-kinase was used.

[2] = tested on: CD44v6; test: HGF-induced activation of Met and ERK in L3.6pl cells (Western blot); assay type: cell-based, human; settings: peptide before induction with 10 ng/ml HGF
Experimental: Serum-starved cells (24 hours) were induced with the growth factor HGF (10 ng/mL) at 37° C. for 5 minutes. Where indicated, the cells were treated with peptides (100 ng/ml) prior to induction at 37° C. for 10 minutes (100 ng/mL CD44v6 peptide or control peptide). Following the induction with HGF, cells were washed with ice-cold phosphate-buffered saline (PBS). To detect activated Met and ERK, cells were lysed in sodium dodecyl sulfate (SDS)—sample buffer containing 100 mM dithiothreitol (DTT), boiled and subjected to western blot analysis using antibodies against phospho-Met and ERK. The loading controls were performed on the same blot after stripping (62.5 mM Tris, pH 6.8, 2% SDS, 0.8% DTT) by probing with the Met respectively Erk antibody. Blots were stained using the enhanced chemiluminescence system (Thermo Fisher Scientific, Schwerte, Germany). Bands in western blot analysis were quantified with the program Image J (National Institutes of Health).
To expand the studies to human pancreatic tumors, the highly metastatic human pancreatic carcinoma cells L3.6pl (Bruns, et al. Neoplasia (1999), 1(1):50-62) were investigated. These cells originate from the […] cells that have been passaged several times in the liver and the pancreas, a step that rendered them more and more metastatic. It was confirmed that Met is dependent on CD44v6 for its activation and signaling in these cells (FIG. 19A). The L3.6pl cells were treated with HGF in the presence or absence of a human v6 peptide of SEQ ID NO: 2 or SEQ ID NO:6 and Met activation and downstream signaling to ERK was measured. Phosphorylation of both Met and ERK was inhibited by the human v6 peptide. Treatment with a corresponding rat v6 peptide (ctrl peptide, SEQ ID NO: 10 or 11) had no influence on receptor activation and signal transduction (FIG. 19A).
The contribution of CD44v6 to Met signaling in the human epithelial pancreatic cancer cells L3.6pl (derived from Colo 357), the cervix carcinoma cells HeLa and the colon cancer cells HT29 were analysed using the CD44v6 peptide (v6 14mer; v6 5mer tested as well, data not shown).

[3] = tested on: L3.6pl cells; test: Human orthotopic pancreatic cancer model, L3.6pl cells in nude mice, treatment from day 7; assay type: in vivo, mouse
Experimental: In the case of the human orthotopic model, L3.6pl pancreatic carcinoma cells (passage 24-26) were suspended in Hank's balanced salt solution (Invitrogen, Karlsruhe, Germany) after trypsinization. The cells were injected orthotopically in the pancreas of male nude mice as described (Bruns C J et al. (1999) Neoplasia 1(1):50-62). Two groups of 15 mice each were injected i.p. 7 days later with either the human v6 peptide respectively rat control peptide (20 μg). For all experiments described and depicted herein either the rat 14mer control peptide or the human 14mer peptide were used. All experiments were then repeated with the rat 5mer control peptide or the human 5mer peptide (N-R-W-H-E, SEQ ID NO: 2). […] The injection was repeated three times per week for 21 days. Two days after the last treatment the animals were killed.
7 μm thick paraffin sections were deparaffinized and rehydrated. For P-Met staining antigen unmasking was achieved by boiling the slides in 1 mM EDTA pH 8.0 followed by incubation for 15 minutes at a sub-boiling temperature, for CD31 staining the sections were treated with Proteinase K (8 μg/ml) for […] at 37° C. For immunofluorescence staining of P-Met, unspecific binding was blocked with 5% goat serum (DAKO, Glostrup, Denmark) (diluted in 1×PBS/0.3% Triton X-100) for 60 minutes. In the case of immunohistochemistry, endogenous peroxidases were at first blocked with 3% H2O2 in PBS followed by incubation with biotin blocking system (Dako, Glostrup, Denmark) and then unspecific binding was inhibited by incubation with 5% FCS in PBS was used for blocking. The sections were incubated with the P-Met antibody (D26, dilution 1:50 in 1×PBS/1% BSA/0.3% Triton X-100), Met antibody (C-28, dilution 1:50), GFP antibody (sc-101525, dilution 1:50) or CD31 antibody (5 μg/ml) over night or VFF18 (5 μg/ml) o/n at 4° C. After washing in PBS the sections were incubated with Alexa Fluor R 546 goat anti-rabbit (in case of immunofluorescence P-Met and Met staining, dilution 1:500) or a biotinylated secondary antibody (for immunohistochemical stainings rabbit anti-rat antibody for VFF18 and CD31, goat anti-rabbit for P-Met, cleaved Caspase-3 and cleaved Caspase-8 and rabbit anti-mouse for GFP, dilution 1:500) for 45 minutes. For DAB staining the sections were treated with a streptavidin-peroxidase conjugate (Dako, Glostrup, Denmark) and developed with DAB (3,3′-diaminobenzidine) substrate system (3,3′-diaminobenzidine; Biozol, Eching, Germany) For immunofluorescence DAPI was used for nuclear staining.
To test the effect of the peptide on tumor growth and metastasis formation the L3.6pl cells were orthotopically injected into the pancreas of immunosuppressed mice (NCI-nu). […] The primary tumor expresses a high amount of CD44v6 (FIG. 19B). […] Indeed, human HGF in a concentration of 3375 pg/ml was detected in the supernatant (see Material and Methods) after 5 days of culture (data not shown).

[4] = tested on: L3.6pl cells; test: Regression of already established metastases, L3.6pl orthotopic mouse model; assay type: in vivo; settings: nude mice, orthotopic L3.6pl, treatment from week 3 for three weeks; human v6 peptide or rat control peptide 20 μg i.p.
Experimental: In order to examine the regression of metastases (either BSp73ASs6 or L3.6pl) were implanted as described above. Tumor growth was allowed for three weeks. At that time all animals had developed metastases in the control group. Animals were injected i.p. with 20 μg (L3.6pl orthotopic mouse model: human v6 peptide or rat control peptide) or i.v. with 200 μg (rat syngeneic model: rat v6 peptide or mouse control peptide) of peptides three times per week. Animals were killed 23 days after the start of the peptide treatment.
The specific binding of the CD44v6 peptides to specific areas of the lungs in the rat system and of the liver in the human model raises the question whether these peptides might have an effect on already established metastases. In the experiments described in FIGS. 17 and 19 the peptides were applied early after injection of the tumor cells and repressed completely the establishment of metastases. In order to measure the effect of the CD44v6 peptide on already established metastases, other experimental settings were used. BSp73ASs6 cells were injected subcutaneously into syngeneic rats and L3.6pl cells orthotopically into male nude mice and allowed to grow for 3 weeks. […]

T1 sequence (P16070 21-742): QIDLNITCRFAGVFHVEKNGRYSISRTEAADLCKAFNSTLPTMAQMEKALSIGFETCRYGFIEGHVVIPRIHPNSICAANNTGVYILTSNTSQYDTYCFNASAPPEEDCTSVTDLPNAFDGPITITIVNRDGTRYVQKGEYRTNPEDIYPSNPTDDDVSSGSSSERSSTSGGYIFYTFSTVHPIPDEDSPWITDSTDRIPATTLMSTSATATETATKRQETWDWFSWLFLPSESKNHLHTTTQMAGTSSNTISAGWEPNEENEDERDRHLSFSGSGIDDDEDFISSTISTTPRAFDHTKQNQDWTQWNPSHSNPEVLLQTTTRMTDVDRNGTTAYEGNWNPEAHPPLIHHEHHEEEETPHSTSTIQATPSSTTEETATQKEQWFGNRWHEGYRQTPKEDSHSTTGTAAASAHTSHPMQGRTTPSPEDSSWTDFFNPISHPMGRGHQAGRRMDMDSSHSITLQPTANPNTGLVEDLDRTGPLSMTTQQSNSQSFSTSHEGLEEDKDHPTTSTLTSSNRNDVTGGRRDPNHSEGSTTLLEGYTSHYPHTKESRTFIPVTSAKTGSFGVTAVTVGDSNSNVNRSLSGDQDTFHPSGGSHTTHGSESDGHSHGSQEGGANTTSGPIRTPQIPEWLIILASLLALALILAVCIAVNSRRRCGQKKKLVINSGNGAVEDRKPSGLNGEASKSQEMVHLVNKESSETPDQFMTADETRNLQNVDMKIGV

Substance: NRWHE [SEQ ID NO: 2, human CD44v6 5mer peptide]
- EGF-induced activation of the ErbB receptors (Erk phosphorylation) ([1]; MCF7, serum-starved, EGF 20 ng/ml): blocking of Erk phosphorylation
- Erk phosphorylation upon TGFα induction ([1]; MCF7, TGFα 20 ng/ml): not upon TGFα induction
- HGF-induced phosphorylation/activation of ERK [2]: inhibited
- HGF-induced phosphorylation/activation of Met [2]: inhibited
- Outcome of all experiments repeated with 5mer peptides, compared with 14mer ([3]; L3.6pl orthotopic model, 5mer instead of 14mer): same results as for the 14mer peptides
- Metastasis formation (liver) ([3]; nude mice, orthotopic L3.6pl, 20 μg i.p. three times per week): capable of inhibiting metastasis
- Presence of metastases (liver) after treatment of established metastases [4]: eliminate already established metastases
